Measured values from patent US11318077B2, “Retinaldehyde containing compositions and methods of use” (RODAN & FIELDS, LLC, priority 2017, dated 2022).

Legend:
MelanoDerm tissues = assay: Cytotoxicity by microscopic observation of MelanoDerm tissues; assay type: cell-based; conditions: 2 weeks
Protocol: Tissues were equilibrated at 37° C. for 60 min. and undiluted samples (25 μl) of test materials were applied on top of tissues in duplicates. DMI and kojic acid were applied at 2.5% and 2% (w:v) respectively (dissolved in double distilled water). Tissue culture was pursued in the pigmentation-inducing medium […]-113 for 14 days, with reapplication of test materials and changes of tissue culture media every 2-3 days. Results and Discussion: From the macroscopic documentation of all the MelanoDerm tissues at the end of the experiment, differences of color are clearly visible between the solvent controls and some test materials. Table 34 informs whether cytotoxicity may have played a role in these differences. Table 34 also reports the non-invasive MelanoDerm color measurement performed with portable spectrophotometer. [table]

[1] = test system: melanin production in MelanoDerm™ skin substitute; assay: Melanin-modulatory effect in MelanoDerm skin substitutes (color measurement, melanin extraction); assay type: cell-based; conditions: for Color measurement (whitening units) / Melanin Content / Melanin Content (% control) / Raw *L values: 2 weeks
Protocol: Objective: The objective of this assay was to determine the ability of the test materials (dimethylisosorbide [DMI], retinoic acid [ATRA], 10% w/w NEAR-1 in dimethylisosorbide [NEAR-1], Niacinamide PC [NAD], and Kojic Acid [KA]) and combinations thereof to inhibit melanin production in MelanoDerm™ skin substitute model. The effect of these experimental conditions on the secretion of the proinflammatory cytokine IL-8 was also assessed, as a surrogate for skin irritation potential.
Tissues were equilibrated at 37° C. for 60 min. and undiluted samples (25 μl) of test materials were applied on top of tissues in duplicates. DMI and kojic acid were applied at 2.5% and 2% (w:v) respectively (dissolved in double distilled water). Tissue culture was pursued in the pigmentation-inducing medium EPI-100-NMM-113 for 14 days, with reapplication of test materials and changes of tissue culture media every 2-3 days.
At the end of the experiment, tissue pigmentation was quantified non-invasively with NS800 portable spectrophotometer (3NH Technology Co., Ltd., China). This instrument is a reflectance spectrophotometer that measures reflected light in the visible spectrum (range: 400-700 nm) recording colors in a three-dimensional space known as CIEL*a*b* color space. In this project, the L* value representing the lightness of the color was used for color assessment. For the purpose of this experiment, the range of the L* parameter spanned from 17.8 (black background) to 87.8 (white background).
For melanin quantification, the MelanoDerms were frozen, solubilized in Solvable™ (Perkin Elmer) and melanin was extracted at 95° C. overnight. The colorimetric signals proportional to the concentration of extracted melanin, as well as those proportional to the IL-8 in the tissue-conditioned medium in the ELISA test were quantified with Molecular Devices microplate spectrophotometer MAX190 at 490 nm and 405 nm.

IL-8 = IL-8 in MelanoDerm tissue culture-conditioned medium by ELISA (skin irritation surrogate); assay type: cell-based, Human; conditions: day 14
Protocol: Objective: The objective of this assay was to determine the ability of the test materials (dimethylisosorbide [DMI], retinoic acid [ATRA], 10% w/w NEAR-1 in dimethylisosorbide [NEAR-1], Niacinamide PC [NAD], and Kojic Acid [KA]) and combinations thereof to inhibit melanin production in MelanoDerm™ skin substitute model. The effect of these experimental conditions on the secretion of the proinflammatory cytokine IL-8 was also assessed, as a surrogate for skin irritation potential. Tissue culture-conditioned media were assayed for the presence of IL-8 by indirect ELISA (using Invitrogen IL-8 Human CytoSet, cat. #CHC 1303). For melanin quantification, the MelanoDerms were frozen, solubilized in Solvable™ (Perkin Elmer) and melanin was extracted at 95° C. overnight. The colorimetric signals proportional to the concentration of extracted melanin, as well as those proportional to the IL-8 in the tissue-conditioned medium in the ELISA test were quantified with Molecular Devices microplate spectrophotometer MAX190 at 490 nm and 405 nm.

[2] = test system: Retinoic Acid Response Element (RARE) transcription factor pathway; assay: Cignal RARE Reporter Assay (firefly luciferase) in HEK293 cells; assay type: cell-based; conditions: 24 h, vs water
Source text: Objective: Retinoic Acid Receptor (RAR) controls gene transcription by binding to Retinoid Acid Response Elements (RAREs) in DNA. This process is modulated by all trans retinoic acid (ATRA)—a compound with well-established anti-aging skin benefits. […] Cignal RARE Reporter Assay® is designed to screen for such compounds using cell cultures. The objective of this project was to test 6 compounds (retinoic acid (ATRA), retinol, vitamin A palmitate, retinal, 10% w/w Near-1 in dimethylisosorbide, and 10% w/w retinoid ester in dimethylisosorbide) for the ability to activate RARE in this Cignal RARE Reporter Assay model.
(§1) Materials & Methods: The experiments were performed using HEK293 cells (Sigma, St. Louis, Mo.; cat. #85120602) seeded at 50,000 per well in a 96 well black-wall tissue culture plate. Cells were transfected by mixing Cignal Reporter Assay firefly/renilla luciferase constructs (cat. #CCS-016L; Qiagen) with Attractene Transfection Reagent (Qiagen) in Opti-MEM supplemented with 1% MEM Non-essential amino acid solution without L-glutamine. After medium change test materials were added and their effect on RARE induction was quantified 24 h later with the Dual-Luciferase Reporter Assay System (cat. #E1960; Promega).

[3] = test system: Retinoid X receptor (RXR) transcription factor pathway; assay: Cignal RXR Reporter Assay (firefly luciferase) in HEK293 cells; assay type: cell-based; conditions: for RXR activation (% control): 24 h, vs water
Source text: Objective: Retinoid X receptors (RXRs) are one class of nuclear receptors through which retinoids mediate their biological effects. These receptors function as transcription factors by binding as heterodimers to specific sequences in the promoters of target genes. The protein encoded by this gene is a member of the steroid and thyroid hormone receptor superfamily of transcriptional regulators. One of its ligands is all trans retinoic acid (ATRA)—a compound with well-established anti-aging skin benefits. […] Cignal RXR Reporter Assay® is designed to screen for such compounds (retinoic acid (ATRA), retinal, 10% w/w Near-1 in dimethylisosorbide, and 10% w/w retinoid ester in dimethylisosorbide) using cell cultures. The objective of this project was to test four compounds for the ability to activate RXR in this Cignal RXR Reporter Assay model.
as §1, with “The” for “Materials & Methods: The”, “Cignal RXR” for “Cignal”, “#CCS9044L;” for “#CCS-016L;”, “Lglutamine.” for “L-glutamine.”, “RXR” for “RARE”
RXR is a mixture of an inducible retinoid X receptor—responsive firefly luciferase construct and a constitutively expressing Renilla construct, which acts as an internal control for normalizing transfection efficiencies and monitoring cell viability. Signal quantification was obtained with ThermoFisher Scientific Luminoskan Ascent Microplate Luminometer.

In the case of `O=c1cc(CO)occ1O` [KA, Kojic Acid], the Cytotoxicity (MelanoDerm tissues; 2%) is reported as “Yes”, the “Color measurement (whitening units)” value ([1]; 2%) is reported as 9.8 whitening units and the “Melanin Content” value ([1]; 2%) is reported as 38 µg/mL. The “Melanin Content (% control)” value ([1]; 2%) was 38 % control and the “Raw *L values” ([1]; 2%) was 55.3.
With `CC1=C(/C=C/C(C)=C/C=C/C(C)=C/C(=O)OCCNC(=O)c2cccnc2)C(C)(C)CCC1` [NEAR-1, 2-(nicotinamido)-ethyl retinoate] the “IL-8 (col. Units)” value (IL-8; 833 μM) was 208 col. Units, the “IL-8 (col. Units)” value (IL-8; 2.2 mM) was 209 col. Units and the “RARE-mediated firefly luciferase expression, % control” value ([2]; 1 μM) was 461 % control. For the same compound, the “RARE-mediated firefly luciferase expression, Fold increase” value ([2]; 1 μM) was 4.6, the “RARE-mediated firefly luciferase expression, % control” value ([2]; 5 μM) was 652 % control and the “RARE-mediated firefly luciferase expression, Fold increase” value ([2]; 5 μM) was 6.5. The “RARE-mediated firefly luciferase expression, % control” value ([2]; 10 μM) was 586 % control, the “RARE-mediated firefly luciferase expression, Fold increase” value ([2]; 10 μM) was 5.8 and the “RXR activation (% control)” value ([3]; 1 μM) was 103 % control. For the same compound, the “RXR activation (% control)” value ([3]; 5 μM) was 112 % control, the “RXR activation (% control)” value ([3]; 10 μM) was 127 % control and the “modulatory effect on RXR-mediated gene expression” value ([3]; 10 uM, statistically-significant) was 1.3 fold. The Cytotoxicity (MelanoDerm tissues; 2.2 mM) was “Yes”, the “Color measurement (whitening units)” value ([1]; 833 μM) was 30.0 whitening units and the “Raw *L values” ([1]; 833 μM) was 72.8. The “Color measurement (whitening units)” value ([1]; 2.2 mM) was 27.4 whitening units, the “Melanin Content” value ([1]; 2.2 mM) was 22 µg/mL and the “Melanin Content (% control)” value ([1]; 2.2 mM) was 26 % control. The “Raw *L values” ([1]; 2.2 mM) was 70.2 and the “Whitening effect (ranking in the retinoid category)” value ([1]; NEAR-1 at 833 μM, Retinaldehyde 833 μM+NAD 835 μM) was “best whitening effect at non-cytotoxic concentration”.
